“Also recorded” adds a separate entry of the source.

The assay relates to adhesion of bacteria. Briefly: Anti-adhesion assay (not further specified). The format is cell-based. From the text:
Further, quercetin and myricetin, which both share the catechin or epicatechin-like nucleus with leucocyanins but have R^2=H or OH, have been tested in the anti-adhesion assay and show no activity. […] Further, as described previously herein, one of the anti-adhesion assays described herein compares the ability of a substance to inhibit binding relative to mannose inhibition of such adhesion, and it is therefore believed that a carbohydrate moiety is involved in conferring anti-adhesion activity.
As for `O=c1c(O)c(-c2ccc(O)c(O)c2)oc2cc(O)cc(O)c12` [quercetin], the anti-adhesion activity result is on record as “no activity”.

For myricetin-3-pyranoside, the anti-adhesion activity entry was “some anti-adhesion activity; also recorded: does have anti-adhesion activity”.

Turning to `O=c1c(O)c(-c2cc(O)c(O)c(O)c2)oc2cc(O)cc(O)c12` [myricetin], the anti-adhesion activity entry is “no activity”.

(Values after patent US6440471B2, “Plant proanthocyanidin extracts” (JLB, Inc., priority 1999, dated 2002).)
